Measurements from ChEMBL document CHEMBL4823299, “Design, synthesis, and biological evaluation of N-(4-substituted)-3-phenylisoxazolo[5,4-d]pyrimidin-4-amine derivatives as apoptosis-inducing cytotoxic agents” (Bioorg Med Chem Lett, 2021).
The source made the active and inactive calls. The calls are words filed in the database; no cut-off is given here.

Tested on: Panel NCI-60 (60 carcinoma cell lines)
Assay: Cytotoxicity against human NCI60 cells by SRB assay
Assay type: functional, cell-based

SMILES | Activity
Clc1ccc(Oc2ccc(Nc3ncnc4onc(-c5ccccc5)c34)cc2)c(Cl)c1 | Active
Clc1ccccc1Oc1ccc(Nc2ncnc3onc(-c4ccccc4)c23)cc1 | Active
Brc1ccc(COc2ccc(Nc3ncnc4onc(-c5ccccc5)c34)cc2)cc1 | Active
COc1ccc(Nc2ncnc3onc(-c4ccccc4)c23)cc1 | Active
Fc1ccc(Oc2ccc(Nc3ncnc4onc(-c5ccccc5)c34)cc2)cc1 | Active
Clc1cccc(COc2ccc(Nc3ncnc4onc(-c5ccccc5)c34)cc2)c1 | Active
Fc1ccccc1Nc1ncnc2onc(-c3ccccc3)c12 | Active
c1ccc(-c2noc3ncnc(Nc4ccc(N5CCOCC5)cc4)c23)cc1 | Active
Cc1ccc(COc2ccc(Nc3ncnc4onc(-c5ccccc5)c34)cc2)cc1 | Active
O=c1cc(Cc2ccc(Oc3ccc(Nc4ncnc5onc(-c6ccccc6)c45)cc3)cc2)c2ccccc2o1 | Active
COc1cccc(COc2ccc(Nc3ncnc4onc(-c5ccccc5)c34)cc2)c1 | Active
c1ccc(COc2ccc(Nc3ncnc4onc(-c5ccccc5)c34)cc2)cc1 | Active
CCOC(=O)c1ccc(Oc2ccc(Nc3ncnc4onc(-c5ccccc5)c34)cc2)cc1 | Active
c1ccc(-c2noc3ncnc(Nc4ccc(Oc5ccccc5-c5ccnc6ccccc56)cc4)c23)cc1 | Active
